ChEMBL document CHEMBL3351686, “Facile and diastereoselective synthesis of 3,2'-spiropyrrolidine-oxindoles derivatives, their molecular docking and antiproliferative activities” (2015)
Values after ≈ are worked out from the molar mass of the structure shown.

Columns and labels:
[1] = system: Malassezia pachydermatis; experiment: Antifungal activity against Malassezia pachydermatis assessed as zone of inhibition at 1 mg/disc after 48 hrs by disc diffusion method; type: functional
[2] = system: Staphylococcus epidermidis; experiment: Antibacterial activity against Staphylococcus epidermidis MTCC 3615 assessed as inhibition of visual growth after 24 hrs; type: functional; conditions: MTCC 3615, 24 h
[3] = system: Staphylococcus aureus; experiment: Antibacterial activity against methicillin-resistant Staphylococcus aureus assessed as inhibition of visual growth after 24 hrs; type: functional
[4] = system: Klebsiella pneumoniae; experiment: Antibacterial activity against Klebsiella pneumoniae MTCC 109 assessed as zone of inhibition at 1 mg/disc after 24 hrs by disc diffusion method; type: functional
[5] = system: Klebsiella pneumoniae; experiment: Antibacterial activity against Klebsiella pneumoniae MTCC 109 assessed as inhibition of visual growth after 24 hrs; type: functional; conditions: MTCC 109, 24 h
[6] = system: Staphylococcus aureus; experiment: Antibacterial activity against Staphylococcus aureus MTCC 96 assessed as inhibition of visual growth after 24 hrs; type: functional; conditions: MTCC 96, 24 h
[7] = system: Klebsiella aerogenes; experiment: Antibacterial activity against Enterobacter aerogenes MTCC 111 assessed as zone of inhibition at 1 mg/disc after 24 hrs by disc diffusion method; type: functional
[8] = system: Staphylococcus aureus; experiment: Antibacterial activity against Staphylococcus aureus MTCC 96 assessed as zone of inhibition at 1 mg/disc after 24 hrs by disc diffusion method; type: functional
[9] = system: Malassezia pachydermatis; experiment: Antifungal activity against Malassezia pachydermatis assessed as inhibition of visual growth after 48 to 72 hrs; type: functional
[10] = system: Klebsiella aerogenes; experiment: Antibacterial activity against Enterobacter aerogenes MTCC 111 assessed as inhibition of visual growth after 24 hrs; type: functional; conditions: MTCC 111, 24 h
[11] = system: Micrococcus luteus; experiment: Antibacterial activity against Micrococcus luteus MTCC 106 assessed as zone of inhibition at 1 mg/disc after 24 hrs by disc diffusion method; type: functional
[12] = system: Staphylococcus aureus; experiment: Antibacterial activity against methicillin-resistant Staphylococcus aureus assessed as zone of inhibition at 1 mg/disc after 24 hrs by disc diffusion method; type: functional
[13] = system: Proteus vulgaris; experiment: Antibacterial activity against Proteus vulgaris MTCC 1771 assessed as inhibition of visual growth after 24 hrs; type: functional; conditions: MTCC 1771, 24 h
[14] = system: Micrococcus luteus; experiment: Antibacterial activity against Micrococcus luteus MTCC 106 assessed as inhibition of visual growth after 24 hrs; type: functional; conditions: MTCC 106, 24 h
[15] = system: Staphylococcus epidermidis; experiment: Antibacterial activity against Staphylococcus epidermidis MTCC 3615 assessed as zone of inhibition at 1 mg/disc after 24 hrs by disc diffusion method; type: functional
[16] = system: Proteus vulgaris; experiment: Antibacterial activity against Proteus vulgaris MTCC 1771 assessed as zone of inhibition at 1 mg/disc after 24 hrs by disc diffusion method; type: functional
[17] = system: Candida albicans; experiment: Antifungal activity against Candida albicans MTCC 227 assessed as zone of inhibition at 1 mg/disc after 48 hrs by disc diffusion method; type: functional
[18] = system: Candida albicans; experiment: Antifungal activity against Candida albicans MTCC 227 assessed as inhibition of visual growth after 48 to 72 hrs; type: functional
[19] = system: Salmonella typhimurium; experiment: Antibacterial activity against Salmonella typhimurium MTCC 1251 assessed as zone of inhibition at 1 mg/disc after 24 hrs by disc diffusion method; type: functional, Salmonella enterica subsp. enterica serovar Typhimurium
[20] = system: Salmonella typhimurium; experiment: Antibacterial activity against Salmonella typhimurium MTCC 1251 assessed as inhibition of visual growth after 24 hrs; type: functional, Salmonella enterica subsp. enterica serovar Typhimurium; conditions: Salmonella enterica, MTCC 1251, 24 h
[21] = system: Shigella flexneri; experiment: Antibacterial activity against Shigella flexneri MTCC 1457 assessed as zone of inhibition at 1 mg/disc after 24 hrs by disc diffusion method; type: functional
[22] = system: Shigella flexneri; experiment: Antibacterial activity against Shigella flexneri MTCC 1457 assessed as inhibition of visual growth after 24 hrs; type: functional; conditions: MTCC 1457, 24 h

Structure (SMILES)	inhibition zone (IZ) [1]	MIC [2]	MIC [3]	inhibition zone (IZ) [4]	MIC [5]	MIC [6]	inhibition zone (IZ) [7]	inhibition zone (IZ) [8]	MIC [9]	MIC [10]	inhibition zone (IZ) [11]	inhibition zone (IZ) [12]	MIC [13]	MIC [14]	inhibition zone (IZ) [15]	inhibition zone (IZ) [16]	inhibition zone (IZ) [17]	MIC [18]	inhibition zone (IZ) [19]	further results
CN1C[C@](C#N)(C(=O)c2c[nH]c3ccccc23)[C@@H](c2cn(-c3ccccc3)nc2-c2ccccc2)[C@@]12C(=O)Nc1ccccc12	9 mm	500 µg/mL (≈ 849 µM)	500 µg/mL (≈ 849 µM)	9 mm	500 µg/mL (≈ 849 µM)	500 µg/mL (≈ 849 µM)	9 mm	9 mm	500 µg/mL (≈ 849 µM)	500 µg/mL (≈ 849 µM)	10 mm	8 mm	500 µg/mL (≈ 849 µM)	250 µg/mL (≈ 425 µM)	8 mm	8 mm	–	–	–	–
C=CCN1C(=O)[C@]2(c3ccccc31)[C@H](c1cn(-c3ccccc3)nc1-c1ccccc1)[C@@](C#N)(C(=O)c1c[nH]c3ccccc13)CN2C	11 mm	250 µg/mL (≈ 398 µM)	500 µg/mL (≈ 795 µM)	10 mm	125 µg/mL (≈ 199 µM)	250 µg/mL (≈ 398 µM)	11 mm	11 mm	250 µg/mL (≈ 398 µM)	250 µg/mL (≈ 398 µM)	12 mm	8 mm	500 µg/mL (≈ 795 µM)	250 µg/mL (≈ 398 µM)	10 mm	8 mm	–	–	–	–
CN1C[C@](C#N)(C(=O)c2c[nH]c3ccccc23)[C@@H](c2cn(-c3ccccc3)nc2-c2ccccc2)[C@@]12C(=O)N(Cc1ccccc1)c1ccccc12	9 mm	500 µg/mL (≈ 737 µM)	500 µg/mL (≈ 737 µM)	11 mm	250 µg/mL (≈ 368 µM)	500 µg/mL (≈ 737 µM)	10 mm	9 mm	500 µg/mL (≈ 737 µM)	500 µg/mL (≈ 737 µM)	9 mm	8 mm	250 µg/mL (≈ 368 µM)	500 µg/mL (≈ 737 µM)	8 mm	10 mm	8 mm	500 µg/mL (≈ 737 µM)	–	–
CCCCN1C(=O)[C@]2(c3ccccc31)[C@H](c1cn(-c3ccccc3)nc1-c1ccccc1)[C@@](C#N)(C(=O)c1c[nH]c3ccccc13)CN2C	11 mm	500 µg/mL (≈ 775 µM)	–	9 mm	500 µg/mL (≈ 775 µM)	–	13 mm	–	250 µg/mL (≈ 388 µM)	125 µg/mL (≈ 194 µM)	11 mm	–	500 µg/mL (≈ 775 µM)	250 µg/mL (≈ 388 µM)	9 mm	8 mm	9 mm	500 µg/mL (≈ 775 µM)	–	–
CN1C(=O)[C@]2(c3ccccc31)[C@H](c1cn(-c3ccccc3)nc1-c1ccccc1)[C@@](C#N)(C(=O)c1c[nH]c3ccccc13)CN2C	10 mm	500 µg/mL (≈ 830 µM)	–	8 mm	500 µg/mL (≈ 830 µM)	–	8 mm	–	500 µg/mL (≈ 830 µM)	500 µg/mL (≈ 830 µM)	10 mm	–	250 µg/mL (≈ 415 µM)	500 µg/mL (≈ 830 µM)	8 mm	10 mm	11 mm	250 µg/mL (≈ 415 µM)	–	–
C#CCN1C(=O)[C@]2(c3ccccc31)[C@H](c1cn(-c3ccccc3)nc1-c1ccccc1)[C@@](C#N)(C(=O)c1c[nH]c3ccccc13)CN2C	8 mm	250 µg/mL (≈ 399 µM)	500 µg/mL (≈ 798 µM)	10 mm	250 µg/mL (≈ 399 µM)	500 µg/mL (≈ 798 µM)	10 mm	9 mm	500 µg/mL (≈ 798 µM)	250 µg/mL (≈ 399 µM)	8 mm	8 mm	500 µg/mL (≈ 798 µM)	500 µg/mL (≈ 798 µM)	10 mm	8 mm	10 mm	125 µg/mL (≈ 199 µM)	–	–
CN1C[C@](C#N)(C(=O)c2c[nH]c3ccccc23)[C@@H](c2cn(-c3ccccc3)nc2-c2ccccc2)[C@@]12C(=O)Nc1ccc(Cl)cc12	9 mm	–	–	9 mm	–	–	9 mm	11 mm	–	–	10 mm	12 mm	–	–	8 mm	11 mm	11 mm	–	8 mm	–
CN1C[C@](C#N)(C(=O)c2c[nH]c3ccccc23)[C@@H](c2cn(-c3ccccc3)nc2-c2ccccc2)[C@@]12C(=O)Nc1ccc([N+](=O)[O-])cc12	8 mm	500 µg/mL (≈ 789 µM)	125 µg/mL (≈ 197 µM)	17 mm	500 µg/mL (≈ 789 µM)	250 µg/mL (≈ 395 µM)	15 mm	19 mm	500 µg/mL (≈ 789 µM)	500 µg/mL (≈ 789 µM)	18 mm	18 mm	250 µg/mL (≈ 395 µM)	250 µg/mL (≈ 395 µM)	15 mm	14 mm	13 mm	250 µg/mL (≈ 395 µM)	12 mm	MIC [20]: 500 µg/mL (≈ 789 µM); inhibition zone (IZ) [21]: 20 mm
N#C[C@]1(C(=O)c2c[nH]c3ccccc23)C2CCCN2[C@]2(C(=O)N(Cc3ccccc3)c3ccccc32)[C@@H]1c1cn(-c2ccccc2)nc1-c1ccccc1 (some centres undefined)	–	–	–	11 mm	–	–	8 mm	13 mm	–	–	9 mm	8 mm	–	–	15 mm	10 mm	8 mm	–	14 mm	–
CCCCN1C(=O)[C@]2(c3ccccc31)[C@H](c1cn(-c3ccccc3)nc1-c1ccccc1)[C@@](C#N)(C(=O)c1c[nH]c3ccccc13)C1CCCN12 (some centres undefined)	–	62.5 µg/mL (≈ 93.2 µM)	500 µg/mL (≈ 745 µM)	9 mm	250 µg/mL (≈ 373 µM)	125 µg/mL (≈ 186 µM)	11 mm	11 mm	–	500 µg/mL (≈ 745 µM)	9 mm	12 mm	250 µg/mL (≈ 373 µM)	500 µg/mL (≈ 745 µM)	10 mm	10 mm	–	500 µg/mL (≈ 745 µM)	8 mm	MIC [20]: 125 µg/mL (≈ 186 µM); inhibition zone (IZ) [21]: 10 mm
N#C[C@]1(C(=O)c2c[nH]c3ccccc23)C2CCCN2[C@]2(C(=O)Nc3ccc(Cl)cc32)[C@@H]1c1cn(-c2ccccc2)nc1-c1ccccc1 (some centres undefined)	11 mm	–	–	9 mm	–	–	8 mm	9 mm	–	–	9 mm	8 mm	–	–	8 mm	10 mm	13 mm	–	8 mm	inhibition zone (IZ) [21]: 10 mm
N#C[C@]1(C(=O)c2c[nH]c3ccccc23)C2CSCN2[C@]2(C(=O)N(Cc3ccccc3)c3ccccc32)[C@@H]1c1cn(-c2ccccc2)nc1-c1ccccc1 (some centres undefined)	–	125 µg/mL (≈ 173 µM)	500 µg/mL (≈ 692 µM)	–	250 µg/mL (≈ 346 µM)	62.5 µg/mL (≈ 86.5 µM)	–	–	500 µg/mL (≈ 692 µM)	250 µg/mL (≈ 346 µM)	–	–	500 µg/mL (≈ 692 µM)	250 µg/mL (≈ 346 µM)	–	10 mm	–	500 µg/mL (≈ 692 µM)	–	MIC [20]: 250 µg/mL (≈ 346 µM); MIC [22]: 500 µg/mL (≈ 692 µM)
CN1C(=O)[C@]2(c3ccccc31)[C@H](c1cn(-c3ccccc3)nc1-c1ccccc1)[C@@](C#N)(C(=O)c1c[nH]c3ccccc13)C1CSCN12 (some centres undefined)	–	125 µg/mL (≈ 193 µM)	–	–	500 µg/mL (≈ 773 µM)	500 µg/mL (≈ 773 µM)	–	–	–	500 µg/mL (≈ 773 µM)	–	–	500 µg/mL (≈ 773 µM)	250 µg/mL (≈ 387 µM)	–	–	–	–	–	MIC [20]: 500 µg/mL (≈ 773 µM)
C#CCN1C(=O)[C@]2(c3ccccc31)[C@H](c1cn(-c3ccccc3)nc1-c1ccccc1)[C@@](C#N)(C(=O)c1c[nH]c3ccccc13)C1CSCN12 (some centres undefined)	–	–	–	–	–	–	–	–	–	–	8 mm	13 mm	–	–	–	9 mm	–	–	–	inhibition zone (IZ) [21]: 14 mm
N#C[C@]1(C(=O)c2c[nH]c3ccccc23)C2CSCN2[C@]2(C(=O)Nc3ccc([N+](=O)[O-])cc32)[C@@H]1c1cn(-c2ccccc2)nc1-c1ccccc1 (some centres undefined)	–	–	–	–	–	–	–	–	–	–	–	–	–	–	–	8 mm	–	–	–	–
